Where two headings read alike, the source gives them in different places.
Assays:
[1] = test system: mast cells; test: AICA riboside: mast cell leukotriene C4 release; format: cell-based, mouse; details: 100 μM pretreatment for six days
[2] = test system: patients undergoing CABG surgery; format: in vivo
Experimental: All patients from all clinical trials were included: a total of 4043 patients undergoing CABG surgery, evaluable for efficacy, and randomized to receive either placebo (n=2031) or acadesine (0.1 mg-kg^−1-min^−1; n=2012) by intravenous infusion for 7 continuous hours and via the cardioplegia solution.
Individual patient data were collected prospectively using standardized forms and methods and double-data entry. A general parametric approach and analysis-by-patient meta-analysis were used, including both fixed effects and random effects models. Inclusion and exclusion criteria, general methodology, and outcome assessment techniques were similar for all trials.
Meta-analysis included all patients undergoing CABG surgery in the United States, Canada, and Europe who had received acadesine at a dose of 0.1 mg-kg^1min^1. No patients satisfying these criteria were excluded. All 5 studies were randomized, placebo controlled, double blinded, and performed with approval from the 81 participating McSPI institutions and with patient informed consent. Inclusion and exclusion criteria, general methods, and outcome assessment techniques were similar for all trials; with several exceptions (Table 1). […] For all patients, blinded study drug (acadesine or placebo) was administered intravenously, starting approximately 15 minutes before induction of anesthesia and continuing for a total of 7 hours to include the intraoperative (prebypass and postbypass) and immunediate postoperative (into the intensive care unit) periods.
Prior to surgery, investigators ascertained cardiac history and recorded cardiac catheterization information. The use of agents potentially affecting endogenous adenosine concentration (which could complicate the analysis of efficacy) was restricted, including dipyridamole, theophylline, adenosine, and pentoxifylline. All chronic cardiovascular medications, including nitrates, β-blockers, and calcium channel blockers, were continued until the time of surgery. During surgery, but prior to bypass, the usual monitors wore applied, anesthetic techniques were standardized, and hemodynamic variables (blood pressure, heart rate) were to be maintained within specific boundaries for trials 1013, 1016, and 1023; for trials […], guidelines for anesthetic use and hemodynamic control were recommended. For all studies, prophylactic use of cardiovascular agents having potential anti-ischemic properties (nitrates, calcium channel Mockers) was specifically excluded to avoid confounding data interpretation. During cardiopulmonary bypass, neither the surgical technique nor bypass procedures (including cardioplegia administration) were controlled for the phase 3 trials, and bypass typically was conducted using a membrane oxygenator and arterial filter with hemodilution and moderate systemic hypothermia. Following bypass, the use of inotropic and vasodilating agents (excluding the prophylactic use of anti-ischemic medications) and treatment of clinically detected ischemia were not controlled; all medications administered were recorded.
For all studies, the primary outcome, MI, and other secondary outcomes were ascertained and validated by IREF Coordinating Center investigators who were blinded to patient identity and group assignment. Secondary outcomes included cardiac death, stroke, life-threatening dysrhythmia, and severe heart failure (Table 1). For MI, repeated electrocardiograms (ECGs) were coded centrally by core investigators using Minnesota Code criteria. Creatine kinase-MB (CK-M13) concentrations were sampled approximately 18 times during the first 4 postoperative days and, for phase 3 studies, were analyzed centrally using an immunoenzymetric assay (Hybritech Tandem-E CK-MB II, SmithKline Beecham, Van Nuys, Calif.). The presence of infarction at autopsy was based on pathologic data from the respective institution and confirmed centrally by the Endpoint Committee.

[3] = test system: patients undergoing CABG surgery
[4] = death following myocardial infarction, acadesine vs placebo (n = 98)
[5] = patients with myocardial infarction, Acadesine (n = 71)
[6] = patients with myocardial infarction, Acadesine (n = 71), number of patients
[7] = plasma level 3.00–4.00 μg/ml, n = 44
[8] = plasma level 4.00–5.00 μg/ml, n = 61

NC(=O)c1ncn([C@@H]2O[C@H](CO)[C@@H](O)[C@H]2O)c1N [1 (1-110), 5-amino-1-β-D-ribofuranosyl-imidazole-4-carboxamide]
Leukotriene C4 release reduced by [1]: 75%
decrease of the incidence of perioperative myocardial infarction ([2]; 0.1 mg/kg/min for 7 hours vs placebo): 27%
cardiac death following MI through postoperative day 4 ([2]; acadesine group (1 death/71 MIs), placebo 13.3%): 1.4%
incidence of CVA ([2]; acadesine group (32/2012), placebo 2.3%): 1.6%
fewer patients with an adverse outcome ([2]; acadesine group vs placebo, combined outcomes): 41
incidence of infarction ([2]; acadesine group, placebo 4.9%): 3.6%
cardiac deaths through postoperative day 4, number ([2]; acadesine group, placebo 26): 13
Cardiac death at 28 days, patients ([2]; acadesine group, placebo 34): 20
patients with myocardial infarction, number ([2]; acadesine group, placebo 98): 71
autopsy-defined MI ([2]; acadesine patients, placebo 16/19): 2/11
decrease of cardiac death following MI through postoperative day 4 ([2]; acadesine vs placebo): 89%
decrease of the incidence of cardiac death through postoperative day 4 ([2]; acadesine vs placebo): 50%
decrease of the incidence of combined outcome (MI, stroke, or cardiac death) ([2]; acadesine vs placebo): 26%
noncardiac death ([2]; acadesine vs placebo): no effect
reduction of the use of ventricular-assistance devices for severe postoperative heart failure ([2]; acadesine vs placebo): approximately one third
post-MI deaths ([2]; acadesine-treated patients, placebo 21/98): 4/71
cardiac death in the first 4 days in patients without MI or not evaluable for MI ([2]; acadesine-treated, placebo 0.7%): 0.6%
Cardiac death by postoperative day 4, Reduction [2, 4]: 89%
Cardiac death by postoperative day 28, Reduction [2, 4]: 79%
Death by postoperative day 4, Reduction [2, 4]: 79%
Death by postoperative day 28, Reduction [2, 4]: 74%
cardiac failure, immediately life-threatening or prolonging hospitalization ([2]; human, in vivo, 7 h): 2.1%
incidence of serious adverse events ([2]; human, in vivo, 7 h): 9.1%
use of an intraaortic balloon pump ([2]; in vivo): 2.4%
Cardiac death by postoperative day 4, (%) [2, 5]: 1 (1) %
Cardiac death by postoperative day 28, (%) [2, 5]: 4%
Death by postoperative day 4, (%) [2, 5]: 3%
Death by postoperative day 28, (%) [2, 5]: 6%
Cardiac death by postoperative day 4, No. [2, 6]: 1 (1)
Cardiac death by postoperative day 28, No. [2, 6]: 3
Death by postoperative day 4, No. [2, 6]: 2
Death by postoperative day 28, No. [2, 6]: 4
reduction in post-MI death ([2]; secondary analysis, acadesine vs placebo): 74%
effect size for MI ([2]; trial 1016 (n=414)): 73%
rate of stroke ([2]; trial 1016, placebo 4.2%): 0.5%
combined adverse cardiovascular outcome (MI, CVA or cardiac death) ([2]; trial 1016, placebo […]): 1.9%
infarction rate (Q wave and CK-MB or autopsy) ([2]; trial 1016, placebo […]): 1.5%
effect size for MI ([2]; trial 1017 (n=821)): 23%
effect size for MI ([2]; trial 1024 (n=2698)): 22%
Cardiac Death, incidence ([3]; Low Dose, n = 214): 5 (2.3%)
Cerebrovascular Accident, incidence ([3]; Low Dose, n = 214): 2 (0.9%)
Combined Clinical Outcomes, incidence ([3]; Low Dose, n = 214): 23 (10.7%)
Congestive Heart Failure, incidence ([3]; Low Dose, n = 214): 6 (2.8%)
Life-Threatening Dysrhythmia, incidence ([3]; Low Dose, n = 214): 9 (4.2%)
decrease in incidence of MI ([3]; high dose vs placebo): 68%
decrease in incidence of cerebrovascular accident ([3]; high dose vs placebo): 88%
reduction in the incidence of combined outcomes ([3]; high dose vs placebo): 61%
incidence of myocardial infarction by either ECG or CK-MB ([3]; high dose, placebo 24.1%): 20.8%
Myocardial Infarction MI, incidence ([3]; plasma level 0.25–2.00 μg/ml, n = 83): 2 (2.4%)
Combined Clinical Outcome, incidence ([3]; plasma level 0.25–2.00 μg/ml, n = 89): 9 (10.1%)
Myocardial Infarction MI, incidence ([3]; plasma level 2.00–3.00 μg/ml, n = 114): 5 (4.4%)
Combined Clinical Outcome, incidence ([3]; plasma level 2.00–3.00 μg/ml, n = 116): 11 (9.5%)
Combined Clinical Outcome, incidence [3, 7]: 3 (6.8%)
Myocardial Infarction MI, incidence [3, 7]: 1 (2.3%)
Combined Clinical Outcome, incidence [3, 8]: 2 (3.3%)
Myocardial Infarction MI, incidence [3, 8]: 0
Myocardial Infarction MI, incidence ([3]; plasma level 5.00–6.00 μg/ml, n = 49): 2 (4.1%)
Combined Clinical Outcome, incidence ([3]; plasma level 5.00–6.00 μg/ml, n = 50): 3 (6.0%)
Myocardial Infarction MI, incidence ([3]; plasma level <0.25 μg/ml, n = 209): 9 (4.3%)
Combined Clinical Outcome, incidence ([3]; plasma level <0.25 μg/ml, n = 211): 29 (13.7%)
Myocardial Infarction MI, incidence ([3]; plasma level >6.00 μg/ml, n = 44): 1 (2.3%)
Combined Clinical Outcome, incidence ([3]; plasma level >6.00 μg/ml, n = 46): 4 (8.7%)
